Where two headings read alike, the source gives them in different places.

The test has as its system PABPC1 PABC. It is filed as binding, human. To be noted: DMS-BM library, bait PABPC1 PABC, row aa = residue at this position; for DMS-derived PSSM value, position E8 / DMS-derived PSSM value (averaged), position E8: E = wild type.
[1] abbreviates: prey ATXN2, peptide KSTLNPNAKEFNPRSF, R = wild type.
Where [2] appears, read: prey ATXN2, peptide KSTLNPNAKEFNPRSF, F = wild type.
[3] abbreviates: prey ATXN2, peptide TLNPNAKEFNPRSFSQ, F = wild type.
Where [4] appears, read: prey ATXN2, TLNPNAKEFNPRSF(averaged) over the two overlapping peptides, S = wild type.
Where [5] appears, read: prey ATXN2, peptide TLNPNAKEFNPRSFSQ
Where [6] appears, read: prey ATXN2, peptide KSTLNPNAKEFNPRSF, N = wild type.
Where [7] appears, read: prey ATXN2, peptide KSTLNPNAKEFNPRSF, S = wild type.
[8] abbreviates: prey ATXN2, peptide TLNPNAKEFNPRSFSQ, R = wild type.
Setting [9] is: prey ATXN2, TLNPNAKEFNPRSF(averaged) over the two overlapping peptides, P = wild type.
[10] abbreviates: prey ATXN2, peptide TLNPNAKEFNPRSFSQ, S = wild type.
Setting [11] is: prey ATXN2, TLNPNAKEFNPRSF(averaged) over the two overlapping peptides.
Where [12] appears, read: prey ATXN2, peptide KSTLNPNAKEFNPRSF, L = wild type.
The mark [13] stands for this setting: prey ATXN2, TLNPNAKEFNPRSF(averaged) over the two overlapping peptides, N = wild type.
[14] abbreviates: prey ATXN2, peptide TLNPNAKEFNPRSFSQ, K = wild type.
Where [15] appears, read: prey ATXN2, peptide TLNPNAKEFNPRSFSQ, N = wild type.

Regarding “KSTLNPNAKEFNPRSF R14M (KSTLNPNAKEFNPMSF)”, the “DMS-derived PSSM value, position R14” value under setting [1] was 0.00585. Take “KSTLNPNAKEFNPRSF F16N (KSTLNPNAKEFNPRSN)”: the “DMS-derived PSSM value, position F16” value under setting [2] is reported as 0.04727. Turning to TLNPNAKEFNPRSFSQ F9R (TLNPNAKERNPRSFSQ), the “DMS-derived PSSM value, position F9” value under setting [3] amounted to 0.

Turning to “TLNPNAKEFNPRSF(averaged) S13Y (TLNPNAKEFNPRYF)”, under setting [4], the “DMS-derived PSSM value (averaged), position S13” value came out at 0.0362. With TLNPNAKEFNPRSFSQ E8L (TLNPNAKLFNPRSFSQ), the “DMS-derived PSSM value, position E8” value under setting [5] is listed as 0. Turning to KSTLNPNAKEFNPRSF N7D (KSTLNPDAKEFNPRSF), under setting [6], the “DMS-derived PSSM value, position N7” value is on record as 0.07378. Turning to TLNPNAKEFNPRSFSQ P4G (TLNGNAKEFNPRSFSQ), the “DMS-derived PSSM value, position P4” value (prey ATXN2, peptide TLNPNAKEFNPRSFSQ, P = wild type) stood at 0.0005247. Consider KSTLNPNAKEFNPRSF S2A (KATLNPNAKEFNPRSF), for which, under setting [7], the “DMS-derived PSSM value, position S2” value was found to be 0.03999.

For “TLNPNAKEFNPRSFSQ R12S (TLNPNAKEFNPSSFSQ)”, the “DMS-derived PSSM value, position R12” value under setting [8] is listed as 0.1947. For “TLNPNAKEFNPRSF(averaged) P11Y (TLNPNAKEFNYRSF)”, under setting [9], the “DMS-derived PSSM value (averaged), position P11” value worked out at 0.02499. “TLNPNAKEFNPRSF(averaged) S13K (TLNPNAKEFNPRKF)”: under setting [4], the “DMS-derived PSSM value (averaged), position S13” value amounted to 0.003966. On to “KSTLNPNAKEFNPRSF F11P (KSTLNPNAKEPNPRSF)”, for which the “DMS-derived PSSM value, position F11” value under setting [2] is listed as 0. As to “KSTLNPNAKEFNPRSF P13S (KSTLNPNAKEFNSRSF)”, the “DMS-derived PSSM value, position P13” value (prey ATXN2, peptide KSTLNPNAKEFNPRSF, P = wild type) is given as 0.02375. For “TLNPNAKEFNPRSF(averaged) A6N (TLNPNNKEFNPRSF)”, under “prey ATXN2, TLNPNAKEFNPRSF(averaged) over the two overlapping peptides, A = wild type”, the “DMS-derived PSSM value (averaged), position A6” value is on record as 0. On to “TLNPNAKEFNPRSFSQ S15M (TLNPNAKEFNPRSFMQ)”, for which the “DMS-derived PSSM value, position S15” value under setting [10] is on record as 0.1078.

As for “KSTLNPNAKEFNPRSF F16E (KSTLNPNAKEFNPRSE)”, the “DMS-derived PSSM value, position F16” value under setting [2] is 0.01536. For the substance “TLNPNAKEFNPRSF(averaged) E8S (TLNPNAKSFNPRSF)”, the “DMS-derived PSSM value (averaged), position E8” value under setting [11] is 0.04903. Consider “TLNPNAKEFNPRSF(averaged) R12T (TLNPNAKEFNPTSF)”, for which the “DMS-derived PSSM value (averaged), position R12” value (prey ATXN2, TLNPNAKEFNPRSF(averaged) over the two overlapping peptides, R = wild type) is reported as 0.1269. As to “KSTLNPNAKEFNPRSF F11T (KSTLNPNAKETNPRSF)”, the “DMS-derived PSSM value, position F11” value under setting [2] is recorded as 0.

As to KSTLNPNAKEFNPRSF N7G (KSTLNPGAKEFNPRSF), the “DMS-derived PSSM value, position N7” value under setting [6] stood at 0. Regarding “KSTLNPNAKEFNPRSF F11H (KSTLNPNAKEHNPRSF)”, under setting [2], the “DMS-derived PSSM value, position F11” value came out at 0. Consider KSTLNPNAKEFNPRSF N5Q (KSTLQPNAKEFNPRSF), for which, under setting [6], the “DMS-derived PSSM value, position N5” value was found to be 0. For the substance “TLNPNAKEFNPRSF(averaged) E8W (TLNPNAKWFNPRSF)”, the “DMS-derived PSSM value (averaged), position E8” value under setting [11] is given as 0. As for “TLNPNAKEFNPRSFSQ S13N (TLNPNAKEFNPRNFSQ)”, the “DMS-derived PSSM value, position S13” value under setting [10] was 0.07115.

Turning to KSTLNPNAKEFNPRSF L4K (KSTKNPNAKEFNPRSF), the “DMS-derived PSSM value, position L4” value under setting [12] was found to be 0.

Take KSTLNPNAKEFNPRSF A8Y (KSTLNPNYKEFNPRSF): where the note is “prey ATXN2, peptide KSTLNPNAKEFNPRSF, A = wild type”, the “DMS-derived PSSM value, position A8” value was found to be 0. As for “TLNPNAKEFNPRSF(averaged) N3V (TLVPNAKEFNPRSF)”, under setting [13], the “DMS-derived PSSM value (averaged), position N3” value was 0.

In the case of TLNPNAKEFNPRSFSQ F9L (TLNPNAKELNPRSFSQ), the “DMS-derived PSSM value, position F9” value under setting [3] was determined as 0. Consider KSTLNPNAKEFNPRSF K9R (KSTLNPNAREFNPRSF), for which, under “prey ATXN2, peptide KSTLNPNAKEFNPRSF, K = wild type”, the “DMS-derived PSSM value, position K9” value is recorded as 0.0319. Take “KSTLNPNAKEFNPRSF R14A (KSTLNPNAKEFNPASF)”: under setting [1], the “DMS-derived PSSM value, position R14” value was found to be 0.09772. TLNPNAKEFNPRSFSQ K7I (TLNPNAIEFNPRSFSQ): the “DMS-derived PSSM value, position K7” value under setting [14] is reported as 0.003703. For “TLNPNAKEFNPRSF(averaged) F9Q (TLNPNAKEQNPRSF)”, the “DMS-derived PSSM value (averaged), position F9” value (prey ATXN2, TLNPNAKEFNPRSF(averaged) over the two overlapping peptides, F = wild type) stood at 0. As to TLNPNAKEFNPRSFSQ E8R (TLNPNAKRFNPRSFSQ), under setting [5], the “DMS-derived PSSM value, position E8” value is 0.

Take “TLNPNAKEFNPRSFSQ N10Q (TLNPNAKEFQPRSFSQ)”: the “DMS-derived PSSM value, position N10” value under setting [15] is recorded as 0.09458. For the substance “TLNPNAKEFNPRSF(averaged) E8D (TLNPNAKDFNPRSF)”, the “DMS-derived PSSM value (averaged), position E8” value under setting [11] was 0. Regarding “TLNPNAKEFNPRSFSQ F14E (TLNPNAKEFNPRSESQ)”, under setting [3], the “DMS-derived PSSM value, position F14” value is reported as 0.02018.

With KSTLNPNAKEFNPRSF L4R (KSTRNPNAKEFNPRSF), under setting [12], the “DMS-derived PSSM value, position L4” value was 0.

Regarding TLNPNAKEFNPRSFSQ L2F (TFNPNAKEFNPRSFSQ), the “DMS-derived PSSM value, position L2” value (prey ATXN2, peptide TLNPNAKEFNPRSFSQ, L = wild type) was found to be 0.1032. Consider KSTLNPNAKEFNPRSF N5H (KSTLHPNAKEFNPRSF), for which the “DMS-derived PSSM value, position N5” value under setting [6] worked out at 0. For the substance “KSTLNPNAKEFNPRSF R14W (KSTLNPNAKEFNPWSF)”, the “DMS-derived PSSM value, position R14” value under setting [1] was 0.1772. As to “TLNPNAKEFNPRSF(averaged) P11R (TLNPNAKEFNRRSF)”, the “DMS-derived PSSM value (averaged), position P11” value under setting [9] is given as 0.003178. For TLNPNAKEFNPRSFSQ K7R (TLNPNAREFNPRSFSQ), the “DMS-derived PSSM value, position K7” value under setting [14] came to 0.00234. As to KSTLNPNAKEFNPRSF T3P (KSPLNPNAKEFNPRSF), where the note is “prey ATXN2, peptide KSTLNPNAKEFNPRSF, T = wild type”, the “DMS-derived PSSM value, position T3” value stood at 0.005473. As to “TLNPNAKEFNPRSF(averaged) P4L (TLNLNAKEFNPRSF)”, the “DMS-derived PSSM value (averaged), position P4” value under setting [9] turned out to be 0.1003. As for “KSTLNPNAKEFNPRSF N12I (KSTLNPNAKEFIPRSF)”, the “DMS-derived PSSM value, position N12” value under setting [6] is 0.02863. As to “TLNPNAKEFNPRSFSQ R12L (TLNPNAKEFNPLSFSQ)”, under setting [8], the “DMS-derived PSSM value, position R12” value was 0.01731. For the substance “KSTLNPNAKEFNPRSF S15Q (KSTLNPNAKEFNPRQF)”, the “DMS-derived PSSM value, position S15” value under setting [7] is reported as 0. With “TLNPNAKEFNPRSF(averaged) N3D (TLDPNAKEFNPRSF)”, the “DMS-derived PSSM value (averaged), position N3” value under setting [13] was 0.0826. On to TLNPNAKEFNPRSFSQ N5Q (TLNPQAKEFNPRSFSQ), for which, under setting [15], the “DMS-derived PSSM value, position N5” value is recorded as 0.004159. On to “TLNPNAKEFNPRSFSQ N10L (TLNPNAKEFLPRSFSQ)”, for which the “DMS-derived PSSM value, position N10” value under setting [15] is given as 0.1974. Regarding “TLNPNAKEFNPRSF(averaged) K7A (TLNPNAAEFNPRSF)”, the “DMS-derived PSSM value (averaged), position K7” value (prey ATXN2, TLNPNAKEFNPRSF(averaged) over the two overlapping peptides, K = wild type) turned out to be 0.1204. Regarding “TLNPNAKEFNPRSFSQ S13D (TLNPNAKEFNPRDFSQ)”, the “DMS-derived PSSM value, position S13” value under setting [10] is 0.05929.

Consider “TLNPNAKEFNPRSF(averaged) E8A (TLNPNAKAFNPRSF)”, for which the “DMS-derived PSSM value (averaged), position E8” value under setting [11] is 0.01267. As to TLNPNAKEFNPRSFSQ N5S (TLNPSAKEFNPRSFSQ), the “DMS-derived PSSM value, position N5” value under setting [15] was found to be 0.00244. Regarding “TLNPNAKEFNPRSFSQ S13E (TLNPNAKEFNPREFSQ)”, the “DMS-derived PSSM value, position S13” value under setting [10] was 0.006231. With “KSTLNPNAKEFNPRSF R14G (KSTLNPNAKEFNPGSF)”, under setting [1], the “DMS-derived PSSM value, position R14” value stood at 0.105. Consider TLNPNAKEFNPRSFSQ E8G (TLNPNAKGFNPRSFSQ), for which, under setting [5], the “DMS-derived PSSM value, position E8” value is 0. On to TLNPNAKEFNPRSFSQ T1M (MLNPNAKEFNPRSFSQ), for which the “DMS-derived PSSM value, position T1” value (prey ATXN2, peptide TLNPNAKEFNPRSFSQ, T = wild type) turned out to be 0.006287. Turning to “TLNPNAKEFNPRSFSQ F14G (TLNPNAKEFNPRSGSQ)”, under setting [3], the “DMS-derived PSSM value, position F14” value came to 0.005512.

Consider “KSTLNPNAKEFNPRSF F11A (KSTLNPNAKEANPRSF)”, for which, under setting [2], the “DMS-derived PSSM value, position F11” value amounted to 0. For the substance KSTLNPNAKEFNPRSF L4Y (KSTYNPNAKEFNPRSF), the “DMS-derived PSSM value, position L4” value under setting [12] is on record as 0.

These data come from article PMC12102759 (Protein Science : A Publication of the Protein Society, 2025).
